Where “and” joins values, the source holds several entries; their conditions need not be identical. Equal entries are not always repeated. Where two headings read alike, the source gives them in different places.
Experiments:
[1] = molecular target: T1, CHO-OAT1 (Homo sapiens, UniProt Q4U2R8); conditions: read-out: KI (literature), cited from earlier work
T1 construct: host or cells: CHO
T1 sequence (Q4U2R8 1-563): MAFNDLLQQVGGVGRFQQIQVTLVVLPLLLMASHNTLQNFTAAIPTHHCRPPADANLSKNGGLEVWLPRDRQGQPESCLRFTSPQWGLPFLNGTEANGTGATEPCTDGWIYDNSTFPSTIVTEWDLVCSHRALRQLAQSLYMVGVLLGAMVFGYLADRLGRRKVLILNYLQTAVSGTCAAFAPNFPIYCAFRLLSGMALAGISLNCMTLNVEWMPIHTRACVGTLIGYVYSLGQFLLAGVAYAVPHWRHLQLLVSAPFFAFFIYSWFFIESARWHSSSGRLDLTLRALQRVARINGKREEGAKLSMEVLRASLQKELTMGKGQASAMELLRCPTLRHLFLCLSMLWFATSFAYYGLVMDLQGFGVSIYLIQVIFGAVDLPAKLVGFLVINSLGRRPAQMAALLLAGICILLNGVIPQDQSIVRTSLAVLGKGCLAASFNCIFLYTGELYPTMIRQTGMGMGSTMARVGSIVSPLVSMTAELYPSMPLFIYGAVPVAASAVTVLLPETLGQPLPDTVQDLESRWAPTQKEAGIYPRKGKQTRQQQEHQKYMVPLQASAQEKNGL

[2] = molecular target: T2, HeLa-OAT1 (Homo sapiens, UniProt Q4U2R8); conditions: substrate PAH, HeLa-OAT1, Ref. 29; read-out: IC50 (literature); cited from earlier work
T2 construct: host or cells: HeLa
T2 sequence (Q4U2R8 1-563): T1 sequence (Q4U2R8 1-563)

[3] = molecular target: T3, OAT1 (Homo sapiens, UniProt Q4U2R8)
T3 sequence (Q4U2R8 1-550 isoform Q4U2R8-2): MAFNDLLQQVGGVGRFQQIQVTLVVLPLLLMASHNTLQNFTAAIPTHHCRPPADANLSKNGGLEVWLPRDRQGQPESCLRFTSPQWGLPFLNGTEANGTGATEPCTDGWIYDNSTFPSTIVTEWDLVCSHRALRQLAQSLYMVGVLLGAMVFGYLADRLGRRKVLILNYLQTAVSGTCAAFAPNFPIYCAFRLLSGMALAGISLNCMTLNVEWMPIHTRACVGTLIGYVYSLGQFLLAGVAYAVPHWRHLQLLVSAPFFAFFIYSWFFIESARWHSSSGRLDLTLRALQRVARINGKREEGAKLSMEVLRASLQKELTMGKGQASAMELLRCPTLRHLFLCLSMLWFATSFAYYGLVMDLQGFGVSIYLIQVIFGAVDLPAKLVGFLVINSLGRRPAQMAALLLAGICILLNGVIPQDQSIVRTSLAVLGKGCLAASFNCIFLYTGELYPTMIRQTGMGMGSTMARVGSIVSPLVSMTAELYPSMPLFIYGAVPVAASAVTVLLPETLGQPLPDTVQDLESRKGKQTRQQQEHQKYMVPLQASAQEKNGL

[4] = tested on: ciPTEC-OAT1; assay: MTT viability assay in ciPTEC-OAT1; format: cell-based, human; conditions: for Cell viability (MTT) relative to no exposure: ciPTEC-OAT1, 1 mM, 48 h; for IC50: serum free medium, mean ± SEM, n ≥ 3
[5] = tested on: hOAT1-CHO and HEK-OAT1; conditions: Ref 35, 37, cited from earlier work
[6] = molecular target: T4, Xenopus-OAT3 (Homo sapiens, UniProt Q8TCC7); conditions: substrate estrone sulfate, Xenopus-OAT3, References 50, 53; read-out: IC50 (literature); cited from earlier work
T4 construct: host or cells: Xenopus oocytes
T4 sequence (Q8TCC7 1-542): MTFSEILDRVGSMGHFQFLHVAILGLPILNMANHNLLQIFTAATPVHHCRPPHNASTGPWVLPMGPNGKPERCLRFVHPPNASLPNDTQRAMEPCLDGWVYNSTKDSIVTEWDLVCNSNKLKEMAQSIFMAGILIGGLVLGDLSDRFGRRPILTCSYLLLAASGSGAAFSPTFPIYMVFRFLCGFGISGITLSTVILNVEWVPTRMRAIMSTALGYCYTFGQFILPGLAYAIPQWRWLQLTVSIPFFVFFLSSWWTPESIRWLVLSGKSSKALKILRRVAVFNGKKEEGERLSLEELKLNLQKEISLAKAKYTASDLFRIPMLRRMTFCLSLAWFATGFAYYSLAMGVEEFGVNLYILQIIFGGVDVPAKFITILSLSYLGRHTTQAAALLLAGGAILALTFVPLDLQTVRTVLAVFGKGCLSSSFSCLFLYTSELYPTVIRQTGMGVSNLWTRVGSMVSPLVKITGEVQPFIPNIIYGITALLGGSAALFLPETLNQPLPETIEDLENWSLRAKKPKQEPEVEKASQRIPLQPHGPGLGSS

[7] = molecular target: T5, CHO-OAT3 (Homo sapiens, UniProt Q8TCC7); conditions: substrate Sitagliptin, CHO-OAT3, Reference 51; read-out: IC50 (literature); cited from earlier work
T5 construct: host or cells: CHO
T5 sequence (Q8TCC7 1-542): T4 sequence (Q8TCC7 1-542)

[8] = molecular target: OCT2 (Homo sapiens, UniProt O15244); conditions: ASP+ 1 μM, 60 min, HBSS, 37° C.; similar IC50 in ciPTEC parent, ciPTEC-OAT1 and ciPTEC-OAT3 (p>0.05)
[9] = molecular target: T6, OAT3 (Homo sapiens, UniProt Q8TCC7)
T6 sequence (Q8TCC7 1-542): T4 sequence (Q8TCC7 1-542)

[10] = tested on: ciPTEC-OAT3; assay: MTT viability assay in ciPTEC-OAT3
Procedure: (§1) Briefly, monolayers of ciPTEC (96-wells) were exposed to antivirals in serum-free medium (SFM) on day 6 of maturation. Cell toxicity was analyzed further in presence of multidrug resistance protein (MRP) efflux inhibitor MK571 (5 μM) and breast cancer resistance protein (BCRP) efflux inhibitor KO143 (10 μM). After incubation for 24, 48 and 72 h at 37° C., ciPTEC were washed and incubated with 0.5 mg/ml thiazolyl blue tetrazolium bromide (MTT, Sigma) for 3 h at 37° C. in absence of antivirals. Formazan crystals formed in viable cells were dissolved in dimethyl sulfoxide (DMSO, Merck, Whitehouse Station, USA) and optical density was measured (560 nm, background at 670 nm was subtracted) using Benchmark Plus (Bio-Rad, Hercules, USA).
(§2) Non-linear regression with variable slope constraining the top to 100% was used to fit the data after background subtraction with GraphPad Prism. Statistics was performed by two-way ANOVA (two-tailed, α=0.05) using GraphPad Prism as well. All data is presented as mean±SEM of at least three separate experiments (n=3) performed in triplicate, unless stated otherwise.

[11] = tested on: ciPTEC parent; assay: MTT viability assay in ciPTEC parent; format: cell-based, human; conditions: 10×Cmax (50 μM), with MRP4 inhibitor MK571 and BCRP inhibitor KO143
Procedure: as §1, §2

[12] = Varma et al., 2009; cited from earlier work
[13] = tested on: OAT1; assay: OAT1 gene expression in ciPTEC-OAT1 with or without EGF (quantitative PCR); format: cell-based, human; conditions: ciPTEC-OAT1, EGF 10 ng/mL, 48 hours
Procedure: ciPTEC-OAT1. 4B2 DSM ACC3279 was cultured in phenol red-free DMEM/F12 (Invitrogen, Breda, The Netherlands), as described in example 1 here above. Cells were seeded at a density of 63,000 cell/cm^2, cultured for 24 hours at 33° C. and subsequently at 37° C. for 7 days. To study the effects of EGF, matured ciPTEC-OAT1 were treated for 48 hours in the presence or absence of EGF (10 ng/mL).
OAT1 gene expression profiling was performed by isolating total RNA from cells grown in six-well plates, using an RNeasy Mini kit (Qiagen, Venlo, The Netherlands), according to the manufacturers specifications. Subsequently, cDNA was synthesized using the Omniscript RT-kit (Qiagen). Subsequently, quantitative PCR was performed in a CFX96 Real-Time PCR detection system (Bio-rad, Veenendaal, The Netherlands) according to the manufacturers conditions. GAPDH was used as reference gene for normalization and relative expression levels were calculated as fold change using the 2^−ΔΔCT method. The primer-probe sets for the quantitative PCR were obtained from Applied Biosystems: GAPDH—hs99999905 ml and OAT1—hs00537914.

[14] = 120 h, read-out: Inhibitory potency on cell viability, literature 120 h
[15] = read-out: Inhibitory potency on cell viability, literature 48 h, 48 h

Chain of OCT2 (O15244 whole entry): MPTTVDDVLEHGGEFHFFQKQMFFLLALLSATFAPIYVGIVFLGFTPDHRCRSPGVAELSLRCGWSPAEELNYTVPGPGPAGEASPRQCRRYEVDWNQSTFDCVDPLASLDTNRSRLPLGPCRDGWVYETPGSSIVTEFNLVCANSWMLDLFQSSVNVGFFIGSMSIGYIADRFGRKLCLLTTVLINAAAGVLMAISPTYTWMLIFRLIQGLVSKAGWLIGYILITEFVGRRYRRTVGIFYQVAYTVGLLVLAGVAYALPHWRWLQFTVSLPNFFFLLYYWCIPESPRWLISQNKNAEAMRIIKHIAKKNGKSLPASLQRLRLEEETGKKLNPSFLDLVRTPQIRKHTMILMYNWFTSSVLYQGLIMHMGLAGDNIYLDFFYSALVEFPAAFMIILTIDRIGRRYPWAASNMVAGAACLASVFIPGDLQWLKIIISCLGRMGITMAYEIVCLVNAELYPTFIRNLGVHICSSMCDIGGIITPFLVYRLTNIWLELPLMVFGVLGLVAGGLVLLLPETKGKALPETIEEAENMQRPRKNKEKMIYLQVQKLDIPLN

For `Nc1ncnc2c1ncn2CCOCP(=O)(O)O` [Adefovir], the Ki ([1]; CHO-OAT1, substrate not given) is given as 23.8 µM, the IC50 [2] is given as 8.1 µM and the IC50 [3] is given as 23 ± 4 µM. For the same compound, the “Cell viability (MTT) relative to no exposure” value [4] was “significantly affected”, the IC50 [5, 14] was 1.4 ± 0.7 µM and the IC50 [5, 15] was 0.22 ± 0.08 µM.
In the case of `Nc1ccn(C[C@@H](CO)OCP(=O)(O)O)c(=O)n1` [Cidofovir], the IC50 [3] is given as 71 ± 34 µM, the IC50 [5, 14] is given as 3 ± 1 µM and the IC50 [5, 15] is given as 0.5 ± 0.2 µM.
For `CN/C(=N/CCSCc1nc[nH]c1C)NC#N` [Cimetidine], the IC50 [3] is listed as 654 ± 291 µM, the IC50 [6] is listed as 53 µM and the IC50 [7] is listed as 79 µM. For the same compound, the “Inhibition of ASP+ uptake at OCT2” value [8] was “significant inhibition” and the IC50 [9] was 215 ± 162 µM.
In the case of `C[C@H](Cn1cnc2c(N)ncnc21)OCP(=O)(O)O` [Tenofovir], the Ki ([1]; Ref. 35, substrate and cell line not given) is listed as 33.8 µM, the “Cell viability (MTT) relative to no exposure” value ([10]; ciPTEC-OAT3, 1 mM, 48 h) is listed as “slightly decreased” and the IC50 [2] is listed as 29.3 µM. For the same compound, the “DDI index Cmax/IC50” value [3] was 0.014 and 0.019, the IC50 [3] was 42 ± 8 µM and the “Cell viability (MTT) relative to no exposure” value [4] was “significantly affected”. For the same compound, the IC50 ([4]; ciPTEC-OAT1, 24 h exposure, read-out: Inhibitory potency on cell viability (MTT), 24 h) was 114 ± 25 µM, the IC50 ([4]; ciPTEC-OAT1, 72 h exposure, read-out: Inhibitory potency on cell viability (MTT), 72 h) was 223 ± 67 µM and the IC50 ([4]; read-out: Inhibitory potency on cell viability (MTT), 48 h, ciPTEC-OAT1, 48 h exposure) was 189 ± 48 µM. For the same compound, the IC50 [5, 14] was 21 ± 7 µM and the IC50 [5, 15] was 10 ± 2 µM.
With `Cc1cn([C@H]2C[C@H](N=[N+]=[N-])[C@@H](CO)O2)c(=O)[nH]c1=O` [Zidovudine] the “Cell viability with efflux inhibitors” value ([10]; ciPTEC-OAT3, 10×Cmax (50 μM), with MK571 and KO143) was “did not affect cell viability”, the “Cell viability with efflux inhibitors” value [11] was “did not affect cell viability” and the “Cell viability with efflux inhibitors” value ([4]; ciPTEC-OAT1, 10×Cmax (50 μM), with MK571 and KO143) was “did not affect cell viability”. The “Cell viability as determined by the MTT assay” value ([4]; ciPTEC-OAT1 and ciPTEC-OAT3, exposure for 24-72 h) was “did not affect cell viability” and the “Fraction eliminated via the urine without metabolic alterations” value [12] was 23%.
With `O=C1OC2(c3ccc(O)cc3Oc3cc(O)ccc32)c2ccccc21` [fluorescein] the Km [3] was 0.8 ± 0.1 µM and the Km [9] was 3.7 ± 0.5 µM.
In the case of `Nc1ccc(C(=O)NCC(=O)O)cc1` [para-aminohippuric acid], the IC50 [9] is reported as 152 ± 3 µM.
In the case of “EGF: Epidermal growth factor (NSDSECPLSHDGYCLHDGVCMYIEALDKYACNCVVGYIGERCQYRDLKWWELR; Epidermal growth factor; UniProt P01133 971-1023, looked up)”, the OAT1 gene expression [13] is reported as “significantly increased”.
For estrone sulfate, the IC50 [6] is listed as 3 µM and the IC50 [9] is listed as 2.1 ± 0.3 µM.

Reference: patent US20180362935A1, “A renal cell line with stable transporter expression” (Stichting Katholieke Universiteit, priority 2015, published 2018)
